Source: ChEMBL document CHEMBL1129687, “Antitumor activity of S-(p-bromobenzyl)glutathione diesters in vitro: a structure-activity study” (J Med Chem, 1996)

Assay: The growth inhibitory concentration of compound was determined by logistic regression of viable cell number on Human leukemia 60 cells
Format: functional, 60 cell

**Q.** With `CC(C)OC(=O)CNC(=O)C(CSCc1ccc(Br)cc1)NC(=O)CCC(N)C(=O)OC(C)C` (configuration not stated) as the compound, how does the GC50 read?
**A.** 19.6 µM

**Q.** Which GC50 does the source give for `CCCCCOC(=O)CNC(=O)C(CSCc1ccc(Br)cc1)NC(=O)CCC(N)C(=O)OCCCCC` (configuration not stated) here?
**A.** 22.2 µM

**Q.** For `CCCCOC(=O)CNC(=O)C(CSCc1ccc(Br)cc1)NC(=O)CCC(N)C(=O)OCCCC` (configuration not stated), which GC50 is on record?
**A.** 18.5 µM

**Q.** For `NC(CCC(=O)NC(CSCc1ccc(Br)cc1)C(=O)NCC(=O)OC1CCCCC1)C(=O)OC1CCCCC1` (configuration not stated), which GC50 is on record?
**A.** 29.2 µM

**Q.** For `NC(CCC(=O)NC(CSCc1ccc(Br)cc1)C(=O)NCC(=O)OC1CCCC1)C(=O)OC1CCCC1` (configuration not stated), which GC50 is on record?
**A.** 4.2 µM

**Q.** For `CCCOC(=O)CNC(=O)C(CSCc1ccc(Br)cc1)NC(=O)CCC(N)C(=O)OCCC` (configuration not stated), which GC50 is on record?
**A.** 7.8 µM

**Q.** Which GC50 does the source give for `CCOC(=O)CNC(=O)C(CSCc1ccc(Br)cc1)NC(=O)CCC(N)C(=O)OCC` (configuration not stated) here?
**A.** 8.3 µM
